Experimental data from US12122760B2, “Compound, composition, and use thereof in preparation of drug” (CHANGSHA ZEDA MEDICAL TECH. CO., LTD, priority 2019, dated 2024).

What was measured:
[1] = test system: MDA-MB-453 TNBC cells; test: Cell proliferation of MDA-MB-453 (CCK8 cell viability); assay type: cell-based; settings: 72 h
Method: 8000 MDA-MB-453 cells were plated in each well of a 96-well plate and incubated for 48 hours. Then cells were treated with increasing concentrations of Zeta55, MDV3100 or SAHA for 72 h, At last, cell viability was measured using a CCK8 Assay kit.

[2] = molecular target: T1, androgen receptor (AR) (Homo sapiens, UniProt P10275); test: Luciferase reporter gene experiment (MMTV-LUC + pSV-AR in 293T cells); assay type: cell-based; settings: 10 nM DHT, FIG. 2
T1 construct: expressed in transfected cells; host or cells: 293T cells
T1 sequence (P10275 1-920): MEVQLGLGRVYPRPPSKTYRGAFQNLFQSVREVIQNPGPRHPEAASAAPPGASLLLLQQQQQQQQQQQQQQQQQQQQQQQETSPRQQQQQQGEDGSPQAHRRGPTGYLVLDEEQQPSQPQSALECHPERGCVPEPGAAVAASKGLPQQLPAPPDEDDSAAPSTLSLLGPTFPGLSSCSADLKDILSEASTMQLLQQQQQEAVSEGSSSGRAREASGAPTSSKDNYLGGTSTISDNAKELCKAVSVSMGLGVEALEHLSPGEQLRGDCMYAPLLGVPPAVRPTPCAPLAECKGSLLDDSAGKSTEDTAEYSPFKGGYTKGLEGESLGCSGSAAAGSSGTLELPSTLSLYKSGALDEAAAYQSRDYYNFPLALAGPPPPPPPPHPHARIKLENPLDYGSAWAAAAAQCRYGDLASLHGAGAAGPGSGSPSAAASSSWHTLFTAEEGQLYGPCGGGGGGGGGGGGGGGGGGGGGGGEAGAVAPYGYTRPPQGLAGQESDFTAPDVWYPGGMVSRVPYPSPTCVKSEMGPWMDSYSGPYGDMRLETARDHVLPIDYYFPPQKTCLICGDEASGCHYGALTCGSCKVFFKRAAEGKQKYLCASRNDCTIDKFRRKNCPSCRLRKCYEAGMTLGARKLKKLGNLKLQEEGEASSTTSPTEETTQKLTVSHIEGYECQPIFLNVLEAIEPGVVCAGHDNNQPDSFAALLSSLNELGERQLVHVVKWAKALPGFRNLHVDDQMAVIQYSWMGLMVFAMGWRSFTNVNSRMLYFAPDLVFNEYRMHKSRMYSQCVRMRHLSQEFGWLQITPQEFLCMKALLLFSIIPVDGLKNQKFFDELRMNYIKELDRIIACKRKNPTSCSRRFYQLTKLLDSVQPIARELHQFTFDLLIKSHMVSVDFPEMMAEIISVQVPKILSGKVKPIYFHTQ
Method: 293T cells are cultured in a 96-well plate. AR plasmids and luciferase genes with AR target promoters are co-transfected in the 293T cells. AR activates the target promoters to express luciferase, and the expression level of the luciferase is directly proportional to AR activation. Adding DHT to the cells can activate AR and express the luciferase, thus enhancing fluorescence signal detection. By detecting the fluorescent signal, it can be examined whether an added drug has AR antagonist activity.
The luciferase reporter gene plasmid MMTV-LUC containing the androgen receptor (AR) target promoters and the plasmid pSV-AR expressing the androgen receptor (AR) are constructed. The 293T cells are inoculated in a 96-well plate, wherein each well containing 1×10^4 cells. The cells are incubated overnight to stick to the wall. On the second day, Lipofectamine® 3000 (Life technologies, USA) is used to transfect the plasmid into the cells. Each well is added with 180 ng of MMTV-LUC plasmid and 20 ng of pSV-AR plasmid. On the third day, each well is added with 10 nM of the DHT and the drugs of different concentrations of 1 nM, 10 nM, 100 nM, 1 uM, 10 uM, 25 uM, 50 uM respectively. The control is 10 nM of the DHT. On the fifth day, a luciferase reporter gene detection kit (Biyuntian company, China) is used to process the cells. 100 uL of cell lysate is added to the 96-well plate, and lyse for 20 min. Then centrifuging is performed at 4 degrees and 10000 g for 3 min. 50 uL of supernatant is taken and 100 uL of a luciferase detection reagent is added. After mixing, chemiluminescence is immediately detected on the multi-functional microplate reader. Graphpad Prism software is used to draw a curve by using the drug concentration as an abscissa and using drug fluorescence value/positive control fluorescence value as an ordinate. Herein MDV3100 is the positive control.

N#Cc1ccc(N2C(=O)C3(CCC3)N(c3ccc(C(=O)NO)c(F)c3)C2=S)cc1C(F)(F)F [Zeta 55, 4-(7-(4-cyano-3-(trifluoromethyl)phenyl)-8-oxo-6-thio-5,7-diazaspiro[3.4]octane-5-yl)-2-fluoro-N-hydroxybenzamide]
potency relative to MDV3100 ([1]; CCK8, FIG. 9): about 1.5 times
IC50 ([1]; Homo sapiens, CCK8, FIG. 9, read-out: IC50 of dose-dependent killing of the cells): 11.1 µM
antagonist effect on the AR, antagonistic ability from high to low [2]: Zeta32>Zeta55>Zeta34>Zeta57>Zeta33
